Results published in PubChem BioAssay AID1896 (NMMLSC, 2009).
Activity calls are given as the source filed them. The rule behind the calls is not given here.

Target: Mitogen-activated protein kinase kinase kinase 3 (Homo sapiens) (UniProt Q99759)
Assay: inhibitors of MEK5 binding to MEKK3, dose response, biochemical, bead multiplex flow cytometry, wildtype (AID 1896)
Details: bead-based multiplex flow cytometry, MEK5-MEKK3 PB1 binding; for Ki: measured here: Ki from EC50

Mitogen-activated protein kinase kinase kinase 3 (Homo sapiens), sequence (Q99759 whole entry, looked up): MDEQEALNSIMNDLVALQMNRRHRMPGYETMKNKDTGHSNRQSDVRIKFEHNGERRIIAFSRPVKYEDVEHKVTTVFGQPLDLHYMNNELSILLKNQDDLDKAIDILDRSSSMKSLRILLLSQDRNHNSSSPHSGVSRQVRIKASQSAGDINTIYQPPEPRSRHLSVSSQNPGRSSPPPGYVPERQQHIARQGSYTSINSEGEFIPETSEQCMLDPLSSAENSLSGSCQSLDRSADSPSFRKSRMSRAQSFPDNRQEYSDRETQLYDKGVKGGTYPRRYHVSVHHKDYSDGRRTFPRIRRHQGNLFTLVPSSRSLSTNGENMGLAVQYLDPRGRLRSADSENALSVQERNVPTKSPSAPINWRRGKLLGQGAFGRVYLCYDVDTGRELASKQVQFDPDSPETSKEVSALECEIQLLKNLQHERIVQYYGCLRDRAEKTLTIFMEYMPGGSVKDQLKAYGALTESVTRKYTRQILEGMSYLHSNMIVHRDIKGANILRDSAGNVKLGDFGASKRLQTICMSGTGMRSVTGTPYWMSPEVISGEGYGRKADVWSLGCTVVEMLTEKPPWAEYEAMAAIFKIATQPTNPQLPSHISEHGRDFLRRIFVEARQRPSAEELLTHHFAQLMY

SMILES	EC50	Ki [µM]
Cc1nn2c(N)csc2nc1=O	4.14 µM	3.54
O=C1Nc2ccc(Br)cc2/C1=N/N=C/C1=C(N2CCOCC2)C(=C\c2ccccc2)/CC1	1.76 µM	1.5
CCCCn1c(O)c(/C=C/C=C/C=Nc2ccccc2)sc1=S	1.29 µM	1.1
C#CCOCCOCCOCCNc1nc(N2CCN(C(=O)[C@H](Cc3cc4ccccc4[nH]3)n3cc([C@@H](N)CC(C)C)nn3)CC2)nc(N2CCN(C(=O)[C@H](Cc3cc4ccccc4[nH]3)n3cc([C@@H](N)CC(C)C)nn3)CC2)n1	> 30 µM (inactive)	–
Nc1ccc(Nc2ccccc2N)cc1	21.1 µM	18.1
NC(N)=N/N=C/c1ccc(OCc2ccc(Cl)cc2Cl)cc1	> 30 µM (inactive)	–
C#CCOCCOCCOCCNc1nc(N2CCN(C(=O)[C@H]([C@@H](C)CC)n3cc([C@@H](N)CO)nn3)CC2)nc(N2CCN(C(=O)[C@H](Cc3cc4ccccc4[nH]3)n3cc([C@@H](N)Cc4ccc(O)cc4)nn3)CC2)n1	8.28 µM	7.08
C#CCOCCOCCOCCNc1nc(N2CCN(C(=O)[C@H]([C@@H](C)CC)n3cc([C@@H](N)Cc4ccc(O)cc4)nn3)CC2)nc(N2CCN(C(=O)[C@H](Cc3cc4ccccc4[nH]3)n3cc([C@@H](N)C(C)CC)nn3)CC2)n1 (stereo not given in full)	> 30 µM (inactive)	–
COc1ccc(-c2[nH]ncc2CN2CCCCCCC2)c(OC)c1	> 30 µM (inactive)	–
COC(=O)c1c(C)oc(C)c1S(=O)(=O)N(Cc1ccccc1)C(C)C	> 30 µM (inactive)	–
CCCSc1ncnc2sc(C)c(C)c12	> 30 µM (inactive)	–
Cc1ccccc1OCC(O)CNC1CCC(NCC(O)COc2ccccc2C)CC1 (stereo not given)	> 30 µM (inactive)	–
FC(F)(F)c1cccc(NC(=S)N(CCCN2CCCC2)Cc2cccn2Cc2ccc(Cl)cc2)c1	> 30 µM (inactive)	–
CCCCCCCCCCCCCCCC[n+]1cccc2ccccc21	> 30 µM (inactive)	–
CCCCCCCCCCOC(=O)Cn1c(COc2ccccc2C)[n+](C)c2ccccc21	> 30 µM (inactive)	–
CN1C(=CC=C2C=C(I)C(=O)C(I)=C2)C(C)(C)c2ccccc21	> 30 µM (inactive)	–
C=CCN1C(=O)/C(=C/c2ccc(-c3ccc(F)cc3)o2)SC1=S	> 30 µM (inactive)	–
C#CCOCCOCCOCCNc1nc(N2CCN(C(=O)C([C@@H](C)CC)n3cc(C(N)COC(=O)C(F)(F)F)nn3)CC2)nc(N2CCN(C(=O)[C@H](CCCCN)n3cc(C(N)[C@H](C)CC)nn3)CC2)n1 (stereo not given in full)	> 30 µM (inactive)	–
Nc1ccc2nc(-c3ccc(-c4nc5ccc(N)cc5[nH]4)cc3)[nH]c2c1	> 30 µM (inactive)	–
CCN1CCN(Cc2ccc(NC(=O)c3cc(NC(=O)C(=O)c4c[nH]c5ccccc45)cc(OC)c3)cc2C(F)(F)F)CC1	> 30 µM (inactive)	–
NC(=NCCCCCCN=C(N)/N=C(\N)Nc1ccc(Cl)cc1)/N=C(\N)Nc1ccc(Cl)cc1	> 30 µM (inactive)	–

SMILES	EC50	Ki [µM]
CCCCCCOc1ccc(/C(C)=N/NC2=NCCN2)cc1[N+](=O)[O-]	> 30 µM (inactive)	–
CCOC(=O)C(C(=O)OCC)c1cc(Br)c2noc3c2c1C(=O)c1ccccc1-3	> 30 µM (inactive)	–
CCCCCCCCCC[N+](C)(C)CC/C=C1/c2ccccc2Sc2ccc(Cl)cc21	> 30 µM (inactive)	–
COCCNC(=O)CN(c1cc(Cl)ccc1OC)S(=O)(=O)c1ccc(C)c([N+](=O)[O-])c1	> 30 µM (inactive)	–
COc1ccc(Cn2cc3c(-c4ccc(F)cc4)nnc-3c3cc(OC)c(OC)cc32)cc1	> 30 µM (inactive)	–
C#CCOCCOCCOCCNc1nc(N2CCN(C(=O)[C@H]([C@@H](C)CC)n3cc([C@@H](N)CC(C)C)nn3)CC2)nc(N2CCN(C(=O)[C@H](Cc3cc4ccccc4[nH]3)n3cc([C@@H](N)CC(C)C)nn3)CC2)n1	> 30 µM (inactive)	–
CCCCCCCCCCOC(=O)Cn1c(COc2ccccc2)[n+](C)c2ccccc21	> 30 µM (inactive)	–
CCC(/C=C1\Sc2ccc(OC)cc2N1CC)=C\c1sc2ccc(OC)cc2[n+]1CCCS(=O)(=O)[O-]	> 30 µM (inactive)	–
CCN1/C(=C/c2ccc3cc(C)ccc3[n+]2CC)Sc2cc(C)c(C)cc21	5.79 µM	4.96
C#CCOCCOCCOCCNc1nc(N2CCN(C(=O)[C@H](CCC(=O)O)n3cc(C(N)CO)nn3)CC2)nc(N2CCN(C(=O)[C@H](Cc3cc4ccccc4[nH]3)n3cc(C(N)[C@H](C)CC)nn3)CC2)n1 (stereo not given in full)	> 30 µM (inactive)	–
C#CCOCCOCCOCCNc1nc(N2CCN(C(=O)[C@H](Cc3ccc(O)cc3)n3cc([C@@H](N)C(C)CC)nn3)CC2)nc(N2CCN(C(=O)[C@H](Cc3cc4ccccc4[nH]3)n3cc([C@@H](N)Cc4ccc(O)cc4)nn3)CC2)n1 (stereo not given in full)	> 30 µM (inactive)	–
CCCCCc1cc(=O)oc2c(C(CCN3CCCCC3)c3ccc4c(c3)OCO4)c(OC)cc(OC)c12 (stereo not given)	> 30 µM (inactive)	–
COc1ccc(NC(=O)N(Cc2cc3cc(C)ccc3[nH]c2=O)CC2CCCO2)cc1 (stereo not given)	> 30 µM (inactive)	–
COc1ccc2nc3cc(Cl)ccc3c(Nc3cc(C(C)C)c(O)cc3C)c2c1	> 30 µM (inactive)	–
COc1ccc(C(CCNCc2ccc(OC(C)C)cc2)c2ccccc2OC)cc1 (stereo not given)	> 30 µM (inactive)	–
CCCCCc1cc(=O)oc2c(C(CCN3CCCC(C)C3)c3ccc4c(c3)OCO4)c(OC)cc(OC)c12 (stereo not given)	> 30 µM (inactive)	–
Cc1cc(N=Nc2ccc(C)c(N=Nc3cc(C)c(N)cc3N)c2)c(N)cc1N	> 30 µM (inactive)	–
Cc1nc(Nc2cnc(/C=C/c3cc(C(=O)Nc4cccc(C(F)(F)F)c4)ccc3C)cn2)cc(N2CCNCC2)n1	25.2 µM	21.5
N#CC(C#N)=c1ccc2c(c1)N1C(c3ccccc3)=CC(c3ccccc3)C3CCCCC31N=2 (stereo not given)	1.63 µM	1.4
O=C(c1cc(COc2c(F)cccc2F)on1)N1C[C@H]2CC[C@H]1C2	> 30 µM (inactive)	–
CCN1CCN(Cc2ccc(NC(=O)c3cc(NC(=O)c4cncc(-c5cccs5)c4)cc(OC)c3)cc2C(F)(F)F)CC1	> 30 µM (inactive)	–

Other lines, results leading:

EC50	Ki [µM]	SMILES
> 30 µM (inactive)	–	COc1ccc2nc(C)cc(N/N=C/c3cccc(OC)c3O)c2c1
> 30 µM (inactive)	–	COc1ccc(/C=N/Nc2cc(C)nc3ccc(Br)cc23)cc1
> 30 µM (inactive)	–	C/C(=N\NC(=O)c1cc(O)cc(O)c1)c1ccc(NC(=O)Cc2ccccc2)cc1
2.52 µM	2.15	CCN(CC)CCOC(=O)c1ccc(N/C=C(/C#N)c2nc(-c3ccc(OC)c(OC)c3)cs2)cc1
> 30 µM (inactive)	–	O=C1c2ccccc2-c2onc3ccc(NCCCn4ccnc4)c1c23
> 30 µM (inactive)	–	COc1ccc(Cn2c(SCc3ccc(C)cc3)nc3cc(OC)c(OC)cc3c2=N)cc1Cl
> 30 µM (inactive)	–	COC(=O)C1=C(C)N(Cc2ccccc2)C(=NCc2cccc(C(F)(F)F)c2)N[C@H]1c1cccc(F)c1
> 30 µM (inactive)	–	CN(C)CCCn1c(SCC(=O)Nc2nc(-c3cccc(Br)c3)cs2)nc2ccccc2c1=O
> 30 µM (inactive)	–	CCN(CC)CCOC(=O)c1ccc(N/C=C(/C#N)c2nc(-c3ccc(OC)cc3)cs2)cc1
> 30 µM (inactive)	–	CCOc1cccc2sc(N(CCCN(C)C)C(=O)c3ccc(S(=O)(=O)N4CCc5ccccc5C4)cc3)nc12
> 30 µM (inactive)	–	Cc1cc2ccccc2n1CCNC(=O)c1cccs1
> 30 µM (inactive)	–	COc1cc(CNCCc2c[nH]c3ccccc23)ccc1OCc1ccccc1F
3.93 µM	3.36	CCN1C(c2ccccc2)=C(c2ccccc2)S/C1=C\C=C1/SC(=S)N(C)C1=O
> 30 µM (inactive)	–	Cc1sc(NC(=O)c2ccccc2)c(C(c2ccccn2)N2CCN(CCO)CC2)c1C (stereo not given)
> 30 µM (inactive)	–	CCOC(=O)c1c(-c2ccc(-c3ccccc3)cc2)csc1NC(=O)CNCCN(C)C
0.27 µM	0.23	CCC(=C/c1sc2ccc3ccccc3c2[n+]1C)/C=C1\Sc2ccc3ccccc3c2N1C
> 30 µM (inactive)	–	COc1ccc(-c2csc(N(CCCN(C)C)C(=O)c3ccccc3Cl)n2)cc1
> 30 µM (inactive)	–	Cc1ccc(-c2csc(NC(=O)C[n+]3cc(-c4ccc(C)cc4)n4c3CCC4)n2)cc1

EC50	Ki [µM]	SMILES
5.37 µM	4.59	COc1cccc(OC)c1-c1nn2c(-c3cc(-c4ccccc4)n[nH]3)nnc2s1
> 30 µM (inactive)	–	CC(C)n1cc(CN2CCC(C(=O)Nc3cccc(-c4cccc(Cl)c4)c3)CC2)cn1
> 30 µM (inactive)	–	CCN(CC)CCOC(=O)c1ccc(N/C=C(/C#N)c2nc(-c3ccc4c(c3)OCO4)cs2)cc1
> 30 µM (inactive)	–	O=C1c2ccccc2-c2onc3ccc(NCc4ccco4)c1c23
> 30 µM (inactive)	–	CCCCCCCCCCOC(=O)Cn1c(COc2cccc(C)c2)[n+](C)c2ccccc21
1.21 µM	1.03	CN(C)c1ccc(/C=C/C=C2/SC(=S)N(c3ccccc3)C2=O)cc1
> 30 µM (inactive)	–	Cc1ccc(-c2c[n+](CC(=O)Nc3nc(-c4ccc(F)cc4)cs3)c3n2CCC3)cc1
> 30 µM (inactive)	–	CCN(Cc1ccccc1)S(=O)(=O)c1ccc(C(=O)N(CCCN(C)C)c2nc3ccc(F)cc3s2)cc1
10.2 µM	8.75	CN1C(=O)/C(=C\c2ccc(-c3ccccc3)o2)SC1=S
> 30 µM (inactive)	–	CSc1cccc(NC(=S)N(CCCN2CCCC2)Cc2cccn2Cc2ccc(Cl)cc2)c1
> 30 µM (inactive)	–	N=C(N)SCc1cn(-c2ccccc2)nc1-c1ccc(Br)cc1
> 30 µM (inactive)	–	O=C(NNc1c2ccccc2nc2ccccc12)c1cc2ccccc2cc1O
11.9 µM	10.1	Cc1cc2ccccc2n1CCNC(=O)c1ccc(Br)o1
> 30 µM (inactive)	–	CCN1CCN(Cc2ccc(NC(=O)c3cc(NC(=O)c4cnn(-c5ccccc5)c4N)cc(OC)c3)cc2C(F)(F)F)CC1
> 30 µM (inactive)	–	CCN(CC)CCNC(=O)c1ccc(NC(=O)c2cn(-c3ccccc3)nc2-c2cccs2)cc1
4.55 µM	3.89	CCNc1ccc2noc3c2c1C(=O)c1ccccc1-3
3.4 µM	2.91	CCN1C(c2ccccc2)=C(c2ccccc2)S/C1=C/C=C1\SC(=S)N(C)C1=O
> 30 µM (inactive)	–	COc1ccc(Cn2c(SCc3ccccc3C)nc3cc(OC)c(OC)cc3c2=N)cc1
